Results from article PMC8395767, “Worsening of the Toxic Effects of (±)Cis-4,4′-DMAR Following Its Co-Administration with (±)Trans-4,4′-DMAR: Neuro-Behavioural, Physiological, Immunohistochemical and Metabolic Studies in Mice” (International Journal of Molecular Sciences, 2021).

What was measured:
[1] = test system: 8-OHdG; assay: Immunohistochemistry, frontal cortex: 8-OHdG; format: in vivo, mice; details: for Immunoreactivity of 8-OHdG in the frontal cortex: 30 and 60 mg/kg, vs control
Source text: (§1) Following the acute death or the sacrifice of the animals (after 5-h observation period by dislocation of the spine), brains were taken. These were fixed in 4% buffered formalin and then sampled and incorporated into the paraffin (Leica ASP300 processor, Histoline TEC2900 incorporator; Leica Microsystems Srl, Buccinasco, Milano, Italy). Subsequently, the cut (performed with the Leica HistoCore autocut microtome; Leica Microsystems Srl, Buccinasco, Milano, Italy) was designed to create sections with a thickness of 5 µm for each sample.
(§2) On 5-µm-thick paraffined […] sections, we evaluated the expression of a panel of markers: heat shock proteins (HSP27, HSP70, HSP90), SMAC/DIABLO, NF-kB, iNOS, NOX-2, NT, 8-OHDG.
We used a detection system composed of a biotinylated secondary antibody and HRP-conjugated streptavidin (4plus HRP Universal Detection, Biocare Medical). 3′-,3Diaminobenzidine (DAB) and H2O2 (Betazoid DAB Chromogen Kit, Biocare Medical, Concord, CA, USA) were used as chromogen/substrate. […] In the pictures (sections of the frontal cortex; Figure 3, Figure 4 and Figure 5) to evaluate the variation in the expression of markers (Smac, NOX2, iNOS, 8-OHdG, NT, HSP27, HSP70, HSP90) following treatments, the change in intensity of brown colour (staining of the immunohistochemical technique) in the control and treated tissue was measured. Quantification of Smac, NOX2, iNOS, 8-OHdG, NT, HSP27, HSP70 and HSP90 positive-stained areas was performed by the ImageJ software (imagej.nih.gov/ij/ Accessed date 12 May 2020). […] Positivity was expressed as an extension of the stained analysed area.
Sweating and salivation were expressed as frequency (e.g., % of animals that developed symptoms); psychomotor agitation was expressed as frequency (% of animals) and duration (total time in mins). Core temperature values were expressed as the difference between control temperature (before injection) and temperature following drug administration (Δ°C). Aggressiveness was expressed as frequency (% of animals which become aggressive) and score (number of bites). […]

[2] = test system: 3-nitrotyrosine (NT); assay: Immunohistochemistry, frontal cortex: NT; format: in vivo, mice; details: vs control
Source text: as §1, §2
We used a detection system composed of a biotinylated secondary antibody and HRP-conjugated streptavidin (4plus HRP Universal Detection, Biocare Medical). 3′-,3Diaminobenzidine (DAB) and H2O2 (Betazoid DAB Chromogen Kit, Biocare Medical, Concord, CA, USA) were used as chromogen/substrate. The subsequent counterstaining with haematoxylin–eosin allowed the visualization of cell morphology and nuclei. Once this procedure was completed, the slides were mounted and observed under optical microscope. In the pictures (sections of the frontal cortex; Figure 3, Figure 4 and Figure 5) to evaluate the variation in the expression of markers (Smac, NOX2, iNOS, 8-OHdG, NT, HSP27, HSP70, HSP90) following treatments, the change in intensity of brown colour (staining of the immunohistochemical technique) in the control and treated tissue was measured. Quantification of Smac, NOX2, iNOS, 8-OHdG, NT, HSP27, HSP70 and HSP90 positive-stained areas was performed by the ImageJ software (imagej.nih.gov/ij/ Accessed date 12 May 2020). One image for each animal of the different experimental groups was processed. Positivity was expressed as an extension of the stained analysed area.
Sweating and salivation were expressed as frequency (e.g., % of animals that developed symptoms); psychomotor agitation was expressed as frequency (% of animals) and duration (total time in mins). Core temperature values were expressed as the difference between control temperature (before injection) and temperature following drug administration (Δ°C). Aggressiveness was expressed as frequency (% of animals which become aggressive) and score (number of bites). Convulsions were expressed as frequency (% of animals that developed seizure), episodes (e.g., number of seizure events), latency of first episode (sec.) and duration of each episode (sec.). Lethality was expressed as frequency (% of animals that died during the observation period (5 h) or during the following 24 h). The statistical analysis of the effects of the individual substances in different concentrations were performed using a one-way ANOVA followed by a Bonferroni test for multiple comparisons. A Student’s t-test was used to determine statistical significance (p < 0.05) between two groups. Regarding immunohistochemical analysis, positivity was expressed as the extension of stained analysed area. Results were expressed as means ± mean standard error (SEM). Data were analysed by one-way analysis of variance (ANOVA), followed by Tukey’s post-hoc test. For all tests, a p value of <0.05 was considered statistically significant. All statistical analyses were performed using GraphPad Prism 8 software for Windows (La Jolla, CA, USA).

[3] = recent pharmacokinetic study; cited from earlier work
[4] = test system: NET; set-up: method as in PMID 25331619; details: rat brain tissue, lower potency than (±)cis-4,4′-DMAR; cited from earlier work
[5] = test system: mice; assay: Physiological and neuro-behavioural responses, all parameters (safety pharmacology protocol); format: in vivo
Protocol: The effects of (±)cis-4,4′-DMAR, (±)trans-4,4′-DMAR and their co-administration were investigated by a protocol widely used in studies of “safety pharmacology” for the preclinical characterization of new molecules in rodents. This protocol includes a series of observational behavioural tests carried out in a consecutive manner that monitor the animal responses up to 5 h after compound injections. […] From this moment, the recording time of the physiological and neuro-behavioural responses started, and these were detected in 5-min sessions.
After the first 5 min, the animal was removed from the plate; the body core temperature was then measured, and the aggression tests were performed. […] The core temperature was determined using a probe (1 mm diameter) that was gently inserted after lubrication with liquid Vaseline into the rectum of the mouse (to about 2 cm) and left in position until the temperature stabilised (about 10 s). […] Spontaneous aggressive response was measured based on the number of times a mouse bit a grey cloth put in front of its snout. […] The experiments, conducted in blind by trained observers working together in pairs, were videotaped and eventually analysed off-line by a different trained operator. […]

SMILES | Immunoreactivity of 8-OHdG in the frontal cortex [1] | Immunoreactivity of 8-OHdG in the frontal cortex ([1]; listed as (±)cis) | Immunoreactivity of 3-nitrotyrosine (NT) in the frontal cortex ([2]; 10 mg/kg) | Immunoreactivity of 3-nitrotyrosine (NT) in the frontal cortex ([2]; 30 mg/kg) | Immunoreactivity of 3-nitrotyrosine (NT) in the frontal cortex ([2]; 30 mg/kg, listed as (±)cis) | Immunoreactivity of 3-nitrotyrosine (NT) in the frontal cortex ([2]; 60 mg/kg) | Metabolism and excretion in the mouse urine [3] | Mode of action at NET [4] | Expression of 8-OHdG in the frontal cortex ([1]; 30 mg/kg alone) | Physiological and neuro-behavioural changes ([5]; 30 and 60 mg/kg, systemic administration) | Physiological and neuro-behavioural parameters, all parameters studied ([5]; lower doses of 0.1 and 1 mg/kg)
Cc1ccc(C2OC(N)=NC2C)cc1 (stereo not drawn) [cis-4,4’-DMAR, 4-methyl-5-(4-methylphenyl)-4,5-dihydrooxazol-2-amine] | increased | overexpressed | reduced | increased | statistically significant increase | did not affect | metabolised and excreted |  |  |  | 
Cc1ccc(C2OC(N)=NC2C)cc1 (stereo not drawn) [trans-4,4’-DMAR, 4-methyl-5-(4-methylphenyl)-4,5-dihydrooxazol-2-amine] |  |  |  | ineffective |  |  | not metabolised | substrate-type releaser | ineffective | did not induce any physiological and neuro-behavioural changes | inactive
